Patent US10336712B2, “Compound for enhancing the coupling degree of complex TRPV4-KCa2.3 and anti-hypertension applications thereof” (Jiangnan University, priority 2017, dated 2019)

Assays:
[1] = biological target: T1, endothelial cell ion channel complex TRPV4-KCa2.3 (Mus musculus, UniProt P58391+Q9EPK8); assay: FRET AB detection of coupling of TRPV4 and KCa2.3 in mesentery endothelial cells of hypertensive mice; type: cell-based, C57BL/6J mouse; conditions: 10 μM, 96 h, endothelial cells of 8% high-salt, L-NAME and ANG-2 hypertensive mice; FIG. 4
T1 construct: The mesentery endothelial cells of the mice in the high blood pressure model are primarily isolated; endogenous in cells; host or cells: primary mesenteric endothelial cells of hypertensive C57BL/6J mice (high-salt, L-NAME, ANG-2 models)
Procedure: (§1) C57BL/6J Male mice, 8 weeks aged, are selected, and freely fed for one week. Then, the mice are classified into four groups, respectively 8% high-salt group, L-NAME group, ANG-2 group and reference group. The basic blood pressures of the four groups of mice are measured first to determine the base line of the blood pressure of the mice. The conditions of the reference group are not changed, and the blood pressure is measured every day. The high-salt group is fed with 8% high-salt feed, and then the blood pressure is measured every day. The L-name group is fed with 5% L-NAME solution, and then the blood pressure is measured every day. The ANG-2 group is injected with 4% chloral hydrate to perform anesthesia; then, the mice are respectively operated by implanting a pump on the back, wherein each pump is injected with 200 ul of 2.88 mg/ml ANG-2 solution; then, the mice are sutured and allowed to recover; after approximately 3 days, the measurement of the blood pressure begins, and then continues for about 4 weeks. […]
The mesentery endothelial cells of the mice in the high blood pressure model are primarily isolated and incubated in a constant-temperature cell incubator. […] Then, the coupling of the two proteins before and after the mutation is detected using the laser scanning confocal microscope in the FRET AB mode.

[2] = tested on: three high blood pressure types of mice models; assay: Blood pressure in three high blood pressure types of mice models; type: in vivo, C57BL/6J mouse; conditions: 1 mg/kg injected via the caudal veins; 8% high-salt, L-NAME and ANG-2 models; FIG. 5
Procedure: as §1
Experimental method: three high blood pressure types of mice models are constructed according to the method in Embodiment 4. After modeling succeeds, JNc-440 (1 mg/kg) is injected via the caudal veins, and then the blood pressure of the mice is measured and observed.

[3] = biological target: T2, protein KCa2.3 (structural domain 17C) (Mus musculus, UniProt P58391); assay: Streptavidin magnetic bead pull-down of biotinylated JNc-440 from endothelial cell protein, Western blot detection; type: binding, C57BL/6 J mouse; conditions: FIG. 3
T2 construct: RIPA Lysis is carried out to obtain cellular protein; endogenous in cells; host or cells: primary mesenteric endothelial cells of C57BL/6J mouse
Procedure: (§2) The endothelial cells of C57BL/6 J mouse mesentery are primarily isolated, and then incubated in a constant-temperature cell incubator. Biotinylated JNc-440 (10 μM/L) is added or oligopeptide and biotinylated JNc-440 (10 μM/L) are added into the incubator to jointly incubated with the cells for 96 h. RIPA Lysis is carried out to obtain cellular protein. The protein supernatant is added with 10 μL streptavidin magnetic beads, and the mixture is incubated at a temperature of 4° C. for a whole night. Suspension generated after the incubation is absorbed using a magnetic stand to obtain an avidin magnetic bead-biotinylated JNc-440-protein complex. The complex is suspended with 50 μL of 1× Loading buffer, and boiled for 5 min in a boiling bath. Samples are separated through SDS-PAGE. Proteins are transferred onto a PVDF membrane. The PVDF membrane with the proteins are confined in 5% BSA for 4 h at room temperature, then incubated with a primary antibody at a temperature of 4° C. for a whole night, and next incubated with a secondary antibody for 2 h at room temperature. ECL color developing agent is added. A protein imaging system is used to detect and analyze the obtained product.

[4] = biological target: T3, protein TRPV4 (structural domain AR2) (Mus musculus, UniProt Q9EPK8); assay: as above; type: binding, C57BL/6 J mouse; conditions: FIG. 3
T3 construct: RIPA Lysis is carried out to obtain cellular protein; endogenous in cells; host or cells: primary mesenteric endothelial cells of C57BL/6J mouse
Procedure: as §2

[5] = 10 μM/L, incubated 96 h with primary mouse mesentery endothelial cells

T3 sequence (Q9EPK8 whole entry, the tested form may be a part): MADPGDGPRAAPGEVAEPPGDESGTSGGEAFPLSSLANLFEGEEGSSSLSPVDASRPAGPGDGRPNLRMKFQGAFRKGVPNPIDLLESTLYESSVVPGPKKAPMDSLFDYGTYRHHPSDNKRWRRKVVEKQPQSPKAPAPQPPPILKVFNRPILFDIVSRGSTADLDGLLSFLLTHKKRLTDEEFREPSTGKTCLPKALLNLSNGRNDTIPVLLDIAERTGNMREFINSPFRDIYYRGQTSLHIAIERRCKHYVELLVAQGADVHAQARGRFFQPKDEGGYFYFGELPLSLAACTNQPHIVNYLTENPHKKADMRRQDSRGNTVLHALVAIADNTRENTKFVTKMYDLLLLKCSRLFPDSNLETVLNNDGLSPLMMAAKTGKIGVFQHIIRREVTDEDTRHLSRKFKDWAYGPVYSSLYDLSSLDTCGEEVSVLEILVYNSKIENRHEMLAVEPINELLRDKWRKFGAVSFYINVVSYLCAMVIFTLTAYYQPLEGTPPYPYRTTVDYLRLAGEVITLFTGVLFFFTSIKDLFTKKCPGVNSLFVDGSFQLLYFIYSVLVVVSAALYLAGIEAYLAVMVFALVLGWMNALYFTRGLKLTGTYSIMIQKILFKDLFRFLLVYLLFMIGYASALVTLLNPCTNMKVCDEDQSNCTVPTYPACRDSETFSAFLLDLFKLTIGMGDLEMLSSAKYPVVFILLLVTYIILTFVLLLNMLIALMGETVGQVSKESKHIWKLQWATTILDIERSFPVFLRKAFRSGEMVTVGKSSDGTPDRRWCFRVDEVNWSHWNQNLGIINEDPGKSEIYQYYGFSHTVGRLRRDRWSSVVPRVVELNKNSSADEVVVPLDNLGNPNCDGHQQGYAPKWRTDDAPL

Row | Compound | space coupling degree of the proteins TRPV4 and KCa2.3 (FRET) [1] | blood pressure of the mice [2] | capability of binding with the protein KCa2.3 after the oligopeptide 17C is added ([3]; 10 μM/L plus oligopeptide 17C, 96 h, compared with the reference control) | binding with the protein KCa2.3 [3, 5] | capability of binding with the protein TRPV4 after the oligopeptide AR2 is added ([4]; 10 μM/L plus oligopeptide AR2, 96 h) | binding with the protein TRPV4 [4, 5]
1 | O=C(NCCCNC(=O)C(c1ccccc1)c1ccccc1)c1nc(=O)c2ccccc2[nH]1 [JNc-440] | increased obviously | drops obviously | – | – | – | –
2 | O=C1NC2CSC(CCCCC(=O)OCCCCCNc3nc(C(=O)NCCCNC(=O)C(c4ccccc4)c4ccccc4)nc4ccccc34)C2N1 (stereo not drawn) [biotinylated JNc-440] | – | – | obviously reduced | can be bound | obviously reduced | can be bound
